pIC50, pKi: −log10 of the molar value. Converted amounts (≈) assume the structure as drawn. Residues, ends and D or L forms follow the SMILES beside them. *: point of attachment. CF3 = FC(F)(F)*; Moc = COC(=O)*
Assays:
[1] = Solubility of compound at pH 2; format: physicochemical; conditions: buffer
Autotaxin = Autotaxin (Homo sapiens, UniProt Q13822); test: Inhibition of autotaxin (unknown origin)
[2] = Inhibition of beta-lactamase AmpC (unknown origin); design: species or system Bacteria
Escherichia coli = test: Antibacterial activity against Escherichia coli; format: functional
[3] = tested on: Human immunodeficiency virus; test: Antiviral activity against HIV infected in human MT-2 cells; format: functional, organism-based; conditions: Human immunodeficiency virus 1, MT2
[4] = target: Human immunodeficiency virus type 1 protease (Human immunodeficiency virus 1, UniProt Q72874); test: Inhibition of HIV-1 protease
Neutrophil elastase = target: T1, Neutrophil elastase (Homo sapiens, UniProt P08246); test: Inhibition of human neutrophil elastase
T1 sequence (P08246 whole entry): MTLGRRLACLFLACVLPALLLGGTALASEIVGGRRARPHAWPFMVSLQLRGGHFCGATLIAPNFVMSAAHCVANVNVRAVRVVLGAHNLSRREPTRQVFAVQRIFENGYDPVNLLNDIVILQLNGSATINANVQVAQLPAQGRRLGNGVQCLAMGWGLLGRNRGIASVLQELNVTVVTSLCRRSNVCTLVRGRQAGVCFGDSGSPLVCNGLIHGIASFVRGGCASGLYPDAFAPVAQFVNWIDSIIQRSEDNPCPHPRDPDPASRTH

MCF7 = test: Antiproliferative activity against human MCF7 cells assessed as inhibition of cell growth incubated for 48 hrs by SRB assay; format: functional, cell-based; conditions: MCF7, 48 h

## COc1ccc(/C=C\c2cc(OC)c(OC)c(OC)c2)cc1B(O)O
[1]
  solubility: 33.8 µg/mL (≈ 98.2 µM)

## COc1cc(/C=C2\SC(=O)N(Cc3ccc(F)cc3)C2=O)ccc1OCc1ccc(B(O)O)cc1
Autotaxin
  pIC50: 7.55

## O=S(=O)(Cc1ccc(-c2nnn[nH]2)nc1)NCB(O)O
[2]
  pKi: 9.10

## OB(O)c1cnn(-c2cc(Cl)ncn2)c1
Escherichia coli
  MIC: 1 µg/mL (≈ 4.46 µM)
[2]
  pKi: 8.00

## CC(C)CN(C[C@@H](O)[C@H](Cc1ccccc1)NC(=O)O[C@H]1CO[C@H]2OCC[C@H]21)S(=O)(=O)c1ccc(C(=O)O)cc1
[3]
  pIC50: < 6.00
[4]
  pKi: 10.89

## COC(=O)N[C@H](C(=O)N1CCC[C@H]1C(=O)N[C@H](B(O)O)C(C)C)C(C)C
Neutrophil elastase
  pIC50: 9.57

## CC(C)CN(C[C@@H](O)[C@H](Cc1ccccc1)NC(=O)OC1C2COC3OCC1C3C2)S(=O)(=O)c1ccc(B(O)O)cc1 (stereo partly drawn)
[3]
  pIC50: 7.42
[4]
  pKi: 10.81

## COC(=O)N[C@H](C(=O)N1CCC[C@H]1C(=O)N[C@H](C(=O)C(F)(F)F)C(C)C)C(C)C (Moc-Val-Pro-Val-CF3)
Neutrophil elastase
  pIC50: 6.87

## COc1ccc(/C=C\c2cc(OC)c(OC)c(OC)c2)cc1O [COMBRETASTATIN A4]
MCF7
  pIC50: 7.49
[1]
  solubility: 18.9 µg/mL (≈ 59.7 µM)

Source: ChEMBL document CHEMBL5233243, “Design and discovery of boronic acid drugs” (Eur J Med Chem, 2020)
